In patent US7662553B2, “Polymorphisms in the ERCC1 gene for predicting treatment outcome” (University of Southern California, priority 2002, dated 2010):

Tests used:
[1] = tested on: locally advanced rectal cancer; assay: Pelvic recurrence after 5-FU and pelvic radiation by TS promoter genotype (Example 2); type: in vivo, human; details: pre- or post-operative 5-FU and pelvic radiation
Procedure: Methods: Forty-three (43) patients with locally advanced rectal cancer, who were treated with either pre-operative or post-operative 5-FU and pelvic radiation were analyzed. Genomic DNAs were extracted from paraffin-embedded tissue samples. Patients' genotype for the TS polymorphism was determined by polymerase chain reaction (PCR) amplification of TS promoter region.

[2] = tested on: locally advanced rectal cancer; assay: Time to local recurrence after adjuvant pelvic irradiation plus 5-FU infusion (Example 1); type: in vivo, human
Procedure: Methods: Seventy-three (73) patients with locally advanced rectal cancer (UICC stage II and III) were selected. They had been previously treated with adjuvant pelvic irradiation (45 Gy) to the whole pelvis with an additional boost up to 54 Gy plus 5-FU infusion therapy following tumor resection tissue acquisition during surgery. QRT-PCR (a fluorescence-based, quantitative real-time detection method (Taqman®)) was performed on RNA extracted from formalin-fixed, paraffin-embedded, laser-capture-microdissected tissue to establish gene expression levels. The mRNA was reverse transcribed to cDNA and the genes of interest were quantified as well as an internal reference gene (β-Actin) as a control. All gene expression levels were log-transformed prior to analysis. The maximal c^2 method of Miller, Siegmund (Miller R. and Siegmund D. Biometrics (1982) 38:1011-1016) and Halpem (Halpem J. (1982) Biometrics 38:1017-1023) was used to determine which gene expression best segregated patients into poor- and good-prognosis subgroups 2000 bootstrap-like simulations were used to estimate the distribution of the maximal c^2 statistics under the null hypothesis of no association.

Row | Compound | Effect on neurotoxicity in patients treated with oxaliplatin (celebrex 200-400 mg day, p<0.01) | Patients who developed grade II or III neurotoxicity (of 56 patients with celebrex therapy in combination with oxaliplatin/5-FU chemotherapy) [patients] | Pelvic recurrences, patients ([1]; TS (2/2) and (2/3) genotypes) [%] | Pelvic recurrences, patients ([1]; TS (3/3) genotype) [%] | Probability ± SE of 5-yr recurrence ([2]; total patients n=73, UICC stage II and III, pelvic irradiation 45 Gy with boost up to 54 Gy plus 5-FU infusion after resection) | Median time to recurrence ([2]; total patients n=73, pelvic irradiation plus 5-FU infusion after resection) [Month]
1 | Cc1ccc(-c2cc(C(F)(F)F)nn2-c2ccc(S(N)(=O)=O)cc2)cc1 [celebrex] | protecting against neurotoxicity | 3 |  |  |  | 
2 | O=c1[nH]cc(F)c(=O)[nH]1 [5-FU, 5-fluorouracil] |  |  | 37 | 87 | 0.53 ± 0.08 | 57.0
